Measurements taken from patent US5070210A, “Novel ketenimines as intermediates for insecticides” (ICI Americas Inc., priority 1990, dated 1991).

Tests used:
Type in all cases: in vivo
[1] = tested on: Cabbage Looper [Trichoplusia ni (Hubner)]; test: Cabbage looper insecticidal test; details: second-instar larvae, percent in solution; 3-5 days
How it was run: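 Steps: dilute compound in 50-50 acetone-water from 0.1% downward; immerse cotyledon pieces 2-3 s and dry; place in humid petri dishes with five second-instar larvae; record mortality at 3-5 days. Dosage-mortality curves yield LC50 as percent in solution.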

[2] = tested on: Rice water weevil [Lissorhoptrus oryzophilus (Kuschel)]; test: Rice water weevil insecticidal test; details: topical, μg per weevil; 48 hours
Procedure: The compounds in Tables 1 and 2 above were tested for insecticidal activity using the following testing procedures. LC50 values, based on the results of these tests and calculated according to dosage-mortality curves, are expressed in Table 3.
Rice water weevil [Lissorhoptrus oryzophilus (Kuschel)]:
Test compounds were diluted in acetone. Droplets (1 μl) of test solutions were applied to the ventral abdomens of ten female adult weevils. The treated weevils were placed in containers with wet cotton balls and rice foliage. The containers were covered and kept at a temperature of about 25° C. Mortality was recorded after 48 hours. Test concentrations ranged from […] or 2.5 μg per weevil down to that at which 50% mortality occurred. The LC50 values are expressed below in Table 3 under the heading "RWW" in terms of μg of test compound per weevil.

[3] = tested on: Maize weevil [Sitophilus Zeamais (Motschulsky)]; test: Maize weevil insecticidal test; details: adult weevils, percent in solution; 48 hours
How it was run: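 LC50, in percent of compound in solution, was derived from dosage-mortality curves after 48 h at about 25 °C. Ten adult weevils per container fed on four corn seeds briefly immersed in acetone:water (50:50) solutions of up to 0.01% and dried.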

[4] = tested on: Tobacco Budworm [Heliothis virescens (Fabricius)] eggs; test: Tobacco budworm egg test; details: 2-day old eggs, percent in solution
How it was run: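 Mortality of dipped eggs served as read-out, recorded after untreated controls hatched and began feeding. Treatments used acetone solutions from 0.1% downward, with eggs incubated at 78° F; LC50 is expressed as percent of compound in the solution.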

[5] = tested on: Housefly [Musca domestica]; test: Housefly insecticidal test; details: μg per 25 female flies; mortality after 48 hours
How it was run: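 Dose range started at 100 μg per 25 female flies and went downward. Insects (1-2 days old) contacted a dried acetone/peanut-oil deposit in dishes; LC50 values come from dosage-mortality curves at 48 h.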

[6] = tested on: Tobacco Budworm [Heliothis virescens (Fabricius)] larvae; test: Tobacco budworm contact test; details: second-instar larvae, percent in solution, 5 days
How it was run: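 Cotton cotyledons dipped 2–3 s in compound in 50-50 acetone-water, dried, then infested with 5 second-instar larvae and held 5 days at high humidity. Mortality scored; LC50 from dosage-mortality curves, expressed as percent compound in solution, concentrations from 0.1% downward.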

[7] = tested on: Beet Armyworm (Spodoptera exigua); test: Beet armyworm insecticidal test; details: second-instar larvae, percent in solution; five days
How it was run: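 Sugar beet leaves dipped 2–3 s in compound diluted in 50:50 acetone-water, dried, then infested with five second-instar larvae in humid petri dishes. Mortality scored at 5 days; concentrations from 0.1% downward. LC50 from dosage-mortality curves, expressed as percent compound in solution.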

[8] = tested on: Aster Leafhopper [Macrosteles fascifrens (Stal)]; test: Aster leafhopper insecticidal test; details: adults/nymphs, percent in solution; 48 hours
How it was run: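 Three ~10 cm oat seedlings per cup were dipped 2-3 seconds in 50-50 acetone-water compound solutions, dried, and caged with ten adult/nymph leafhoppers. Mortality was counted after 48 hours at concentrations from 0.05% downward. LC50, as percent compound in solution, came from dosage-mortality curves.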

| SMILES | LC50, CL [1] | LC50, RWW [2] | LC50, MW [3] | LC50, TBW, E (TBW-E) [4] | LC50, HF [5] | LC50, TBW, C (TBW-C) [6] | LC50, BAW [7] | LC50, LH [8] |
| --- | --- | --- | --- | --- | --- | --- | --- | --- |
| CCOc1ccc(N=C(OCc2ccc(F)c(Oc3ccc(Cl)cc3)c2)C(C)C)cc1Cl [Compound 369] | 0.0016% | > 2.5 µg | > 0.01% | > 0.1% | > 100 µg | – | – | – |
| CC(C)C(=Nc1ccc(Cl)c(OCC(F)(F)F)c1)OCc1ccc(F)c(Oc2ccc(Cl)cc2)c1 [Compound 452] | 0.0017% | 0.1 µg | > 0.01% | < 0.1% | > 100 µg | – | – | – |
| CCOc1ccc(N=C(OCc2ccc(F)c(Oc3ccccc3)c2)C(C)C)cc1Cl [Compound 370] | 0.00034% | > 2.5 µg | > 0.01% | 0.02% | < 100 µg | – | – | – |
| CC(C)C(=Nc1cccc(F)c1)OCc1ccc(F)c(Oc2ccc(Cl)cc2)c1 [Compound 375] | > 0.1% | > 2.5 µg | > 0.01% | 0.04% | 7.9 µg | – | – | – |
| CC(C)C(=Nc1ccc(F)c(Br)c1)OCc1cccc(Oc2ccccc2)c1 [Compound 254] | 0.001% | > 2.5 µg | – | 0.026% | 6 µg | – | – | – |
| CC(C)C(=Nc1ccc(C(F)(F)F)c(Br)c1)OCc1ccc(F)c(Oc2ccc(Cl)cc2)c1 [Compound 377] | 0.00062% | > 2.5 µg | > 0.01% | > 0.1% | < 100 µg | – | – | – |
| CC(C)(F)C(=Nc1ccc(F)c(Cl)c1)OCc1ccc(F)c(Oc2ccc(F)cc2)c1 [Compound 310] | 0.00006% | > 2.5 µg | – | 0.015% | 4.5 µg | – | – | – |
| CC(C)C(=Nc1ccc(F)c(Cl)c1)OCc1cc(Oc2ccc(F)cc2)ccc1F [Compound 230] | 0.0004% | > 2.5 µg | 0.038% | 0.1% | 36 µg | – | – | – |
| CC(C)C(=Nc1ccc(C(F)(F)F)cc1)OCc1ccc(F)c(Oc2ccc(F)cc2)c1 [Compound 314] | 0.00005% | 0.11 µg | – | 0.012% | 21 µg | – | – | – |
| CC(C)C(=Nc1ccc(Cl)cc1)OCc1ccc(F)c(Oc2ccc(Cl)cc2)c1 [Compound 391] | 0.00029% | > 2.5 µg | > 0.01% | 0.035% | < 100 µg | – | – | – |
| C=C(C)C(=Nc1ccc(C(F)(F)F)cc1)OCc1ccc(F)c(Oc2ccccc2)c1 [Compound 431] | 0.00017% | 0.084 µg | 0.0037% | 0.025% | 9.8 µg | – | – | – |
| FC(F)(F)Oc1ccc(N=C(OCc2cccc(Oc3ccccc3)c2)C(Cl)Cl)cc1 [Compound 64] | 0.0025% | – | > 0.01% | 0.03% | 11 µg | 0.1% | 0.0025% | > 0.05% |
| CC(C)C(=Nc1ccc(F)c(F)c1F)OCc1cccc(Oc2ccc(F)cc2)c1 [Compound 348] | 0.0002% | – | > 0.01% | > 0.1% | 8 µg | 0.00075% | > 0.1% | 0.05% |
| Clc1cccc(N=C(OCc2cccc(Oc3ccccc3)c2)C(Cl)Cl)c1 [Compound 1] | 0.005% | – | > 0.01% | 0.05% | 4.8 µg | 0.06% | 0.009% | > 0.05% |
| CC(C)C(=Nc1cccc(C(F)(F)F)c1)OCc1ccc(F)c(Oc2ccc(F)cc2)c1 [Compound 268] | 0.000025% | – | > 0.01% | 0.023% | 4 µg | 0.0005% | 0.001% | 0.0005% |
| Fc1ccc(N=C(OCc2cccc(Oc3ccccc3)c2)C2CC2)cc1Cl [Compound 113] | 0.005% | > 2.5 µg | – | 0.1% | 15 µg | – | – | – |
| CC(C)C(=Nc1cccc(Cl)c1)OCc1cccc(Oc2ccc(Cl)cc2)c1 [Compound 270] | 0.00025% | – | > 0.01% | > 0.01% | 12 µg | > 0.0015% | 0.005% | 0.003% |
| Clc1ccc(N=C(OCc2cccc(Oc3ccccc3)c2)C2CC2)cc1 [Compound 32] | 0.003% | – | > 0.01% | 0.1% | 37 µg | 0.006% | 0.03% | > 0.05% |
| CC(=Nc1ccccc1)OCc1cccc(Oc2ccccc2)c1 [Compound 42] | > 0.1% | – | > 0.01% | > 0.1% | 45 µg | > 0.1% | > 0.1% | > 0.05% |
| CC(C)C(=Nc1ccc(OC(F)(F)F)cc1)OCc1ccc(F)c(Oc2ccc(F)c(F)c2)c1 [Compound 347] | 0.000075% | – | > 0.01% | > 0.1% | 30 µg | 0.0001% | 0.00075% | 0.0002% |
